Publication PMC9092651, “Improving Thermostability and Catalytic Activity of Glycosyltransferase From Panax ginseng by Semi-Rational Design for Rebaudioside D Synthesis” (Frontiers in Bioengineering and Biotechnology, 2022)

Biological target: T1, EUGT11 (Oryza sativa, UniProt Q0DPB7)
T1 construct: gene Os03g0702000
T1 sequence (Q0DPB7 1-462): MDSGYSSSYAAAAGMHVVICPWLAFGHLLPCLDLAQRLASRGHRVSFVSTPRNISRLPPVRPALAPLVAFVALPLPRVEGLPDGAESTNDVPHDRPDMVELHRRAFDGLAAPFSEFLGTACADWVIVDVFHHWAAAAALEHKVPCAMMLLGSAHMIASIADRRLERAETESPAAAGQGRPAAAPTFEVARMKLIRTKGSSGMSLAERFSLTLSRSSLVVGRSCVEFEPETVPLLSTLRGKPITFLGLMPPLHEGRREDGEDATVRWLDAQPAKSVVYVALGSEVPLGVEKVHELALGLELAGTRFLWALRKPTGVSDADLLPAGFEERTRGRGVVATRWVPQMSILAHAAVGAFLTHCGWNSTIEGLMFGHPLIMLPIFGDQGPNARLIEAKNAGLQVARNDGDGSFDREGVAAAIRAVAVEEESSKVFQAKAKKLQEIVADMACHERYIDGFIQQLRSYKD
Assay: cell-free synthesised enzyme, HPLC product detection
Details: 2 mM UDP-glucose, 2 mM Reb A, 50 mM PBS pH 8.0, 35 °C, 12 h; positive control

## C=C1C[C@@]23CC[C@H]4[C@@](C)(CCC[C@@]4(C)C(=O)O[C@@H]4O[C@H](CO)[C@@H](O)[C@H](O)[C@H]4O)[C@@H]2CC[C@]1(O[C@@H]1O[C@H](CO)[C@@H](O)[C@H](O[C@@H]2O[C@H](CO)[C@@H](O)[C@H](O)[C@H]2O)[C@H]1O[C@@H]1O[C@H](CO)[C@@H](O)[C@H](O)[C@H]1O)C3 [Reb A]
  cell-free synthesised enzyme, HPLC product detection: the glycosylated product of Reb A catalyzed by EUGT11 had the same HPLC retention time
